# “And” between values parts separate entries of the source, which are not always exact repeats. Equal entries are not always repeated.
# Columns and labels:
# [1] = Kinetic thiol consumption assay with model thiol glutathione; format: physicochemical; set-up: Rate constant with glutathione (k(GSH)): unit not given here; conditions: for Rate constant with glutathione (k(GSH)): 500 μM ligand, 5 μM thiol, phosphate buffer pH 8; for Rate constant with Glutathione: Protein: Glutathione, cysteine position NA, in h-1
# How it was run: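 GSH 5 μM, degassed phosphate buffer pH 8, TCEP beads 2% v/v; acrylamide added; RT, 1 h; fluorescence ex/em 380/470 nm; normalized to DMSO/thiol control; k from first-order exponential decay fit.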
# [2] = target: T1, human cyclin-dependent kinase 2 (Cdk2) (Homo sapiens, UniProt P24941); assay: Kinetic thiol consumption assay with wild type Cdk2 (C177); format: binding; set-up: key to Rate enhancement, Cdk2 WT: k(Cdk2) divided by k(model thiol); Rate constant with Cdk2 (k(Cdk2)): unit not given here; conditions: for Rate constant with Cdk2 (k(Cdk2)): 500 μM ligand, 5 μM thiol, phosphate buffer pH 8; for Rate enhancement, Cdk2 WT: no additional mutations; for Rate constant with Cdk2 WT: Protein: Cdk2, cysteine position WT, in h^-1; for k(Cdk2)/k(Cdk2_mut) rate enhancement: model thiol Cdk2[C177A, F80C, K278C]; for k(Cdk2)/k(GSH) rate enhancement: model thiol glutathione
# T1 construct: poly-histidine; made in house; host or cells: E. coli
# How it was run: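 Rate constants came from first-order exponential decay fits of normalized fluorescence against time, with thiol (5 μM) in degassed pH 8 phosphate buffer containing 2% v/v TCEP beads and reads after 1 h at room temperature.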
# Cdk2[C177A, F80C, K278C] = target: T2, Cdk2[C177A, F80C, K278C] (Homo sapiens, UniProt P24941, C177A/F80C/K278C); assay: Kinetic thiol consumption assay with mutant Cdk2 as model thiol; format: binding; set-up: unit not given here; conditions: 500 μM ligand, 5 μM thiol, phosphate buffer pH 8
# T2 construct: poly-histidine; made in house; host or cells: E. coli
# How it was run: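 Model thiol: His-tagged human Cdk2 C177A/F80C/K278C (two engineered surface cysteines), E. coli-expressed, 5 μM in degassed phosphate buffer pH 8 with immobilized TCEP beads (2% v/v). Fluorescence (ex/em 380/470 nm) followed over time at room temperature, normalized to DMSO/thiol control. First-order decay fit gives rate constants.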
# Cdk2(C177A, F80C) = target: T3, Cdk2(C177A, F80C) (Homo sapiens, UniProt P24941, C177A/F80C); assay: Kinetic thiol consumption assay with Cdk2 mutant F80C, incl. kobs versus concentration (Kd, k2); format: binding; set-up: key to Rate enhancement, Cdk2 F80C: Cdk2 rate constant divided by model-thiol rate constant; conditions: additional mutation C177A; for Rate constant with Cdk2 F80C: Protein: Cdk2, cysteine position F80C, in h^-1
# T3 construct: poly-histidine; made in house; host or cells: E. coli
# How it was run: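 His-tagged Cdk2(C177A/F80C) from E. coli or model thiol, 5 μM in degassed phosphate buffer pH 8 with TCEP beads, reacted with acrylamide ligands; fluorescence (ex/em 380/470 nm) normalized to DMSO control and fitted to first-order decay for kobs. Kd and k2 obtained from hyperbolic fit of kobs versus ligand concentration.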
# Cdk2(H71C) (C177A) = target: T4, Cdk2(H71C) (C177A) (Homo sapiens, UniProt P24941, C177A/H71C); assay: Kinetic thiol consumption assay with Cdk2 mutant H71C; format: binding; set-up: key to Rate enhancement, Cdk2 H71C: rate constant with Cdk2 ÷ rate constant with model thiol (fold); conditions: additional mutation C177A; for Rate constant with Cdk2 H71C: Protein: Cdk2, cysteine position H71C, in h^-1
# T4 construct: poly-histidine; made in house; host or cells: E. coli
# How it was run: (§1)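 5 μM thiol, degassed phosphate pH 8, 2% v/v immobilized TCEP beads; 1 h RT; fluorescence ex 380/em 470 nm; normalized vs DMSO/thiol-only; first-order exponential decay fit → rate constant; Cdk2 k / model-thiol k = rate enhancement per acrylamide.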
# Cdk2(S276C) (C177A) = target: T5, Cdk2(S276C) (C177A) (Homo sapiens, UniProt P24941, C177A/S276C); assay: Kinetic thiol consumption assay with Cdk2 mutant S276C; format: binding; set-up: key to Rate enhancement, Cdk2 S276C: rate constant with Cdk2 ÷ rate constant with model thiol (fold); conditions: additional mutation C177A; for Rate constant with Cdk2 S276C: Protein: Cdk2, cysteine position S276C, in h^-1
# T5 construct: poly-histidine; made in house; host or cells: E. coli
# How it was run: as §1
# Cdk2(N272C) (C177A) = target: T6, Cdk2(N272C) (C177A) (Homo sapiens, UniProt P24941, C177A/N272C); assay: Kinetic thiol consumption assay with Cdk2 mutant N272C; format: binding; set-up: key to Rate enhancement, Cdk2 N272: rate constant with Cdk2 ÷ rate constant with model thiol (fold); conditions: for Rate enhancement, Cdk2 N272: Cdk2 N272, additional mutation C177A; for Rate constant with Cdk2 N272C: Protein: Cdk2, cysteine position N272C, additional mutation C177A, in h^-1
# T6 construct: poly-histidine; made in house; host or cells: E. coli
# How it was run: as §1
# Cdk2(T182C) (C177A) = target: T7, Cdk2(T182C) (C177A) (Homo sapiens, UniProt P24941, C177A/T182C); assay: Kinetic thiol consumption assay with Cdk2 mutant T182C; format: binding; set-up: key to Rate enhancement, Cdk2 T182C: rate constant with Cdk2 ÷ rate constant with model thiol (fold); conditions: additional mutation C177A; for Rate constant with Cdk2 T182C: Protein: Cdk2, cysteine position T182C, in h^-1
# T7 construct: poly-histidine; made in house; host or cells: E. coli
# How it was run: as §1
# Cdk2(R122C) (C177A) = target: T8, Cdk2(R122C) (C177A) (Homo sapiens, UniProt P24941, C177A/R122C); assay: Kinetic thiol consumption assay with Cdk2 mutant R122C; format: binding; set-up: key to Rate enhancement, Cdk2 R122C: rate constant with Cdk2 ÷ rate constant with model thiol (fold); conditions: additional mutation C177A; for Rate constant with Cdk2 R122C: Protein: Cdk2, cysteine position R122C, in h-1
# T8 construct: poly-histidine; made in house; host or cells: E. coli
# How it was run: as §1
# Cdk2(S181C) (C177A) = target: T9, Cdk2(S181C) (C177A) (Homo sapiens, UniProt P24941, C177A/S181C); assay: Kinetic thiol consumption assay with Cdk2 mutant S181C; format: binding; set-up: key to Rate enhancement, Cdk2 S181C: rate constant with Cdk2 ÷ rate constant with model thiol (fold); conditions: additional mutation C177A; for Rate constant with Cdk2 S181C: Protein: Cdk2, cysteine position S181C, in h^-1
# T9 construct: poly-histidine; made in house; host or cells: E. coli
# How it was run: as §1
SMILES,Rate constant with Cdk2 (k(Cdk2)) [2],"Rate enhancement, Cdk2 WT [2]",Rate constant with Cdk2 WT [2],k(Cdk2)/k(Cdk2_mut) rate enhancement [2],k(Cdk2)/k(GSH) rate enhancement [2],"Rate constant with Cdk2[C177A, F80C, K278C] (k(Cdk2_mut)) (Cdk2[C177A, F80C, K278C])","Rate enhancement, Cdk2 F80C (Cdk2(C177A, F80C))","Rate constant with Cdk2 F80C (Cdk2(C177A, F80C))","Rate enhancement, Cdk2 H71C (Cdk2(H71C) (C177A))",Rate constant with Cdk2 H71C (Cdk2(H71C) (C177A)),"Rate enhancement, Cdk2 S276C (Cdk2(S276C) (C177A))",Rate constant with Cdk2 S276C (Cdk2(S276C) (C177A)),"Rate enhancement, Cdk2 N272 (Cdk2(N272C) (C177A))",Rate constant with Cdk2 N272C (Cdk2(N272C) (C177A)),"Rate enhancement, Cdk2 T182C (Cdk2(T182C) (C177A))",Rate constant with Cdk2 T182C (Cdk2(T182C) (C177A)),"Rate enhancement, Cdk2 R122C (Cdk2(R122C) (C177A))",Rate constant with Cdk2 R122C (Cdk2(R122C) (C177A)),Rate constant with glutathione (k(GSH)) [1],Rate constant with Glutathione [1],other results
C=CC(=O)N1CC(CCN2CCCC2=O)c2ccccc21 (centres unmarked) [CA-089],0.2034,4.336,0.2034,9.903,4.414,0.02054,1.909,0.08953,3.475,0.163,3.061,0.1436,4.344,0.2038,16.71,0.784,0.4622,0.02168,0.04608,0.04691,"hit classification, Example 2 ([2]; significant rate enhancement against both model thiols (GSH and mutant Cdk2)): hits; Rate enhancement, Cdk2 S181C (Cdk2(S181C) (C177A)): 0.5754; Rate constant with Cdk2 S181C (Cdk2(S181C) (C177A)): 0.02699"
C=CC(=O)NCc1ccc(F)cc1 [BN-62],0.0019,1.86,0.002863,1.136,1.213,0.00167,0.6901,0.001062,2.5393E−11,3.908E−14,0.7693,0.001184,1.006,0.001549,0.679,0.001045,0.125,0.0001923,0.00157,0.001539,"Rate enhancement, Cdk2 S181C (Cdk2(S181C) (C177A)): 1.1306E−11; Rate constant with Cdk2 S181C (Cdk2(S181C) (C177A)): 1.74E−14"
C=CC(=O)Nc1cccc2ncccc12 [CA-012],0.09635,1.855,0.09635,0.2318,1.877,0.4157,3.888,0.202,0.317,0.01647,0.9852,0.05118,0.4189,0.02176,5.8,0.3013,0.6897,0.03583,0.05132,0.05195,"Rate enhancement, Cdk2 S181C (Cdk2(S181C) (C177A)): 2.504; Rate constant with Cdk2 S181C (Cdk2(S181C) (C177A)): 0.1301"
C=CC(=O)Nc1nc2c(s1)CCCCCC2 [CA-170],0.2972,4.135,0.2972,0.3231,4.273,0.9197,13.67,0.9829,0.9221,0.06628,0.7229,0.05196,0.4672,0.03358,5.267,0.3786,0.3489,0.02508,0.06955,0.07188,"Rate enhancement, Cdk2 S181C (Cdk2(S181C) (C177A)): 0.4978; Rate constant with Cdk2 S181C (Cdk2(S181C) (C177A)): 0.03578"

# Continued, in another order:
Rate constant with Cdk2 (k(Cdk2)) [2],"Rate enhancement, Cdk2 WT [2]",Rate constant with Cdk2 WT [2],k(Cdk2)/k(Cdk2_mut) rate enhancement [2],k(Cdk2)/k(GSH) rate enhancement [2],"Rate constant with Cdk2[C177A, F80C, K278C] (k(Cdk2_mut)) (Cdk2[C177A, F80C, K278C])","Rate enhancement, Cdk2 F80C (Cdk2(C177A, F80C))","Rate constant with Cdk2 F80C (Cdk2(C177A, F80C))","Rate enhancement, Cdk2 H71C (Cdk2(H71C) (C177A))",Rate constant with Cdk2 H71C (Cdk2(H71C) (C177A)),"Rate enhancement, Cdk2 S276C (Cdk2(S276C) (C177A))",Rate constant with Cdk2 S276C (Cdk2(S276C) (C177A)),"Rate enhancement, Cdk2 N272 (Cdk2(N272C) (C177A))",Rate constant with Cdk2 N272C (Cdk2(N272C) (C177A)),"Rate enhancement, Cdk2 T182C (Cdk2(T182C) (C177A))",Rate constant with Cdk2 T182C (Cdk2(T182C) (C177A)),"Rate enhancement, Cdk2 R122C (Cdk2(R122C) (C177A))",Rate constant with Cdk2 R122C (Cdk2(R122C) (C177A)),SMILES,Rate constant with glutathione (k(GSH)) [1],Rate constant with Glutathione [1],other results
0.035 and 0.03473,1.411,0.03473,0.5928,1.4 and 1.411,0.05859,1.215,0.02991,0.2924,0.007199,1.314,0.03236,0.3406,0.008386,2.5,0.06154,0.6852,0.01687,C=CC(=O)Nc1cccc(C(F)(F)F)c1 [EL-1007],0.025 and 0.02461,0.02462,"hit classification, Example 1 ([2]; hits defined as kCdk2/kGSH>5.8 (3 standard deviations over the mean)): negative compound; Rate enhancement, Cdk2 S181C (Cdk2(S181C) (C177A)): 0.487; Rate constant with Cdk2 S181C (Cdk2(S181C) (C177A)): 0.01199"
0.00341,0.4606,0.003421,1.51,0.4373,0.00226,0.3417,0.002538,0.8384,0.006227,0.9981,0.007413,0.6801,0.005051,1.305,0.009691,0.3078,0.002286,C=CC(=O)NC(C)c1cc(OC)c(OC)c(OC)c1 (centres unmarked) [EL-1101],0.0078,0.007427,"Rate enhancement, Cdk2 S181C (Cdk2(S181C) (C177A)): 0.396; Rate constant with Cdk2 S181C (Cdk2(S181C) (C177A)): 0.002941"

# Source: patent publication US11415579B2, “Assay for measuring a rate of reaction between a target and a ligand candidate” (Imperial College Innovations Ltd., priority 2016, dated 2022)
